Source: patent publication US20060069132A1, “Azolecarboxamide herbicides” (priority 2004, published 2006)

Key:
[1] = system: barnyardgrass; assay: Test C flooded paddy test; type: in vivo, Echinochloa crus-galli; details: for Plant response rating, Barnyardgrass: 500 g ai/ha, visual rating after 12 to 14 days
Summary of the method: (§1)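 Greenhouse test with a 12–14 day hold after application and visual comparison with controls. Emerged plants were 1- to 4-leaf stage (2–18 cm) when sprayed postemergence, and the paddy barnyardgrass was at 2 leaves under flooded conditions. 100 = complete control.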

[2] = system: eastern black nightshade; assay: Test C pre-/postemergence herbicide test; type: in vivo, Solanum ptycanthum; details: preemergence
Summary of the method: (§2)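 Greenhouse-grown plants were evaluated visually 12 to 14 days after treatment, with 100 meaning complete control and 0 no effect. Application was preemergence, or postemergence at 2 to 18 cm.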

[3] = system: wheat; assay: Test C postemergence herbicide test; type: in vivo, Triticum aestivum
Summary of the method: as §1

[4] = system: chickweed; assay: Test C postemergence herbicide test; type: in vivo, Stellaria media
Summary of the method: as §1

[5] = system: johnsongrass; assay: Test C pre-/postemergence herbicide test; type: in vivo, Sorghum halepense
Summary of the method: as §2

[6] = system: downy bromegrass; assay: Test E pre-/postemergence herbicide test; type: in vivo, Bromus tectorum; details: Preemergence
Summary of the method: (§3)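 Greenhouse whole-plant test: compounds formulated in a non-phytotoxic solvent mixture with surfactant were applied preemergence to planted seeds and, concurrently, postemergence to plants 2 to 18 cm tall. Response was scored visually after 12 to 14 days, 0 meaning no effect and 100 complete control.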

[7] = system: common ragweed; assay: Test E pre-/postemergence herbicide test; type: in vivo, Ambrosia elatior; details: Preemergence
Summary of the method: as §3

[8] = system: tropical spiderwort; assay: Test E pre-/postemergence herbicide test; type: in vivo, Commelina benghalensis; details: Preemergence
Summary of the method: as §3

[9] = system: broadleaf signalgrass; assay: Test E pre-/postemergence herbicide test; type: in vivo, Brachiaria platyphylla; details: Preemergence
Summary of the method: as §3

[10] = system: common chickweed; assay: Test E pre-/postemergence herbicide test; type: in vivo, Stellaria media; details: Preemergence
Summary of the method: as §3

[11] = 62 g ai/ha, scale 0 to 100 (0 no effect, 100 complete control)
[12] = 125 g ai/ha, scale 0 to 100 (0 no effect, 100 complete control)
[13] = 250 g ai/ha, scale of 0 to 100, 0 is no effect, 100 is complete control
[14] = scale 0 to 100 (0 no effect, 100 complete control)
[15] = 500 g ai/ha, scale 0 to 100 (0 no effect, 100 complete control), visual, 12 to 14 days
[16] = Postemergence, 500 g ai/ha, scale 0 to 100
[17] = Postemergence, 250 g ai/ha, scale 0 to 100, 0 no effect, 100 complete control
[18] = postemergence, 125 g ai/ha, scale 0 to 100
[19] = postemergence, 62 g ai/ha, scale 0 to 100
[20] = 62 g ai/ha, preemergence, scale 0 to 100
[21] = 250 g ai/ha, scale 0-100, preemergence
[22] = 500 g ai/ha, scale 0 to 100 (0 no effect, 100 complete control), visual, 12 to 14 days, preemergence
[23] = 250 g ai/ha, scale 0 (no effect) to 100 (complete control)
[24] = 500 g ai/ha, scale 0 (no effect) to 100 (complete control)

SMILES | Barnyardgrass plant response rating [1, 11] | Barnyardgrass plant response rating [1, 12] | Barnyardgrass plant response rating [1, 13] | Plant response rating, Barnyardgrass [1, 14] | Plant response rating, Wheat [3, 18] | Plant response rating, Wheat [3, 19] | Plant response rating, Johnsongrass [5, 20] | Plant response rating, Johnsongrass [5, 21] | Plant response rating, Johnsongrass [5, 22] | Plant response rating, Bromegrass, Downy ([6]; 62 g ai/ha, scale 0 to 100) | Plant response rating, Bromegrass, Downy ([6]; 125 g ai/ha, scale 0 to 100) | Plant response rating, Bromegrass, Downy [6, 23] | Plant response rating, Bromegrass, Downy [6, 24] | Plant response rating, Ragweed ([7]; 62 g ai/ha, scale 0 to 100) | Plant response rating, Ragweed ([7]; 125 g ai/ha, scale 0 to 100) | Plant response rating, Ragweed [7, 23] | Plant response rating, Ragweed [7, 24] | Plant response rating, Spiderwort ([8]; 125 g ai/ha, scale 0 to 100) | Plant response rating, Spiderwort [8, 23] | Plant response rating, Spiderwort [8, 24] | also measured
CCn1nc(C(C)(C)C)cc1C(=O)Nc1cccc(OC(F)F)c1 [Compound 332] | 5 | 25 | 50 | 60 | 30 | 30 | 0 | 50 | 80 |  |  |  |  |  |  |  |  |  |  |  | Plant response rating, Nightshade ([2]; 62 g ai/ha, scale 0 to 100): 20; Plant response rating, Nightshade ([2]; 125 g ai/ha, scale 0 (no effect) to 100 (complete control), visual, 12 to 14 days): 90; Plant response rating, Nightshade ([2]; 250 g ai/ha, scale 0-100): 95; Plant response rating, Nightshade [2, 15]: 100; Wheat plant response rating [3, 16]: 35; Plant response rating, Wheat [3, 17]: 35; Chickweed plant response rating [4, 16]: 100; Plant response rating, Chickweed [4, 17]: 100; Plant response rating, Chickweed [4, 18]: 100; Plant response rating, Chickweed [4, 19]: 60; Plant response rating, Johnsongrass ([5]; 125 g ai/ha, scale 0 (no effect) to 100 (complete control), visual, 12 to 14 days, preemergence): 10; Johnsongrass plant response rating [5, 16]: 5; Plant response rating, Johnsongrass [5, 17]: 5; Plant response rating, Johnsongrass [5, 18]: 5; Plant response rating, Johnsongrass [5, 19]: 0
Cc1nn(C(C)(C)C)nc1C(=O)Nc1cccc(C(=O)N2CC=CC2)c1 [Compound 393] | 45 | 65 | 75 | 95 | 40 | 35 | 95 | 100 | 100 | 0 | 10 | 60 | 80 | 0 | 10 | 20 | 80 | 100 | 100 | 100 | Plant response rating, Signalgrass ([9]; 62 g ai/ha, scale 0 to 100): 0; Plant response rating, Signalgrass ([9]; 125 g ai/ha, scale 0 to 100): 30; Plant response rating, Signalgrass [9, 23]: 75; Plant response rating, Signalgrass [9, 24]: 85; Plant response rating, Chickweed ([10]; 125 g ai/ha, scale 0 to 100): 60; Plant response rating, Chickweed [10, 23]: 100; Plant response rating, Chickweed [10, 24]: 100; Plant response rating (0 = no effect, 100 = complete control), Johnsongrass ([5]; 125 g ai/ha, preemergence): 100
CCNC(=O)c1cccc(NC(=O)c2nn(C(C)(C)C)nc2C)c1 [Compound 392] | 15 | 45 | 80 | 90 | 30 | 20 | 85 | 100 | 100 | 10 | 20 | 30 | 30 | 30 | 30 | 70 | 100 | 50 | 95 | 100 | Plant response rating, Nightshade ([2]; 62 g ai/ha, scale 0 to 100): 90; Plant response rating (0 = no effect, 100 = complete control), Nightshade ([2]; 125 g ai/ha): 95; Plant response rating, Nightshade ([2]; 250 g ai/ha, scale 0-100): 100; Plant response rating, Nightshade [2, 15]: 100; Plant response rating, Signalgrass ([9]; 62 g ai/ha, scale 0 to 100): 10; Plant response rating, Signalgrass ([9]; 125 g ai/ha, scale 0 to 100): 30; Plant response rating, Signalgrass [9, 23]: 70; Plant response rating, Signalgrass [9, 24]: 85; Plant response rating, Wheat ([3]; Postemergence, 500 g ai/ha, scale 0 to 100, 0 no effect, 100 complete control): 35; Plant response rating, Chickweed ([10]; 62 g ai/ha, scale 0 to 100): 60; Plant response rating, Chickweed ([10]; 125 g ai/ha, scale 0 to 100): 95; Plant response rating, Chickweed [10, 23]: 95; Plant response rating, Chickweed [10, 24]: 95; Plant response rating (0 = no effect, 100 = complete control), Johnsongrass ([5]; 125 g ai/ha, preemergence): 100
CCc1nn(C(C)(C)C)nc1C(=O)Nc1cccc(C(=O)N(C)CC)c1 [Compound 384] | 65 | 75 | 90 | 95 | 20 | 10 | 100 | 100 |  | 20 | 40 | 40 | 90 | 0 | 10 | 40 | 40 | 30 | 60 | 95 | Plant response rating, Signalgrass ([9]; 62 g ai/ha, scale 0 to 100): 10; Plant response rating, Signalgrass ([9]; 125 g ai/ha, scale 0 to 100): 70; Plant response rating, Signalgrass [9, 23]: 80; Plant response rating, Signalgrass [9, 24]: 80; Plant response rating, Chickweed ([10]; 62 g ai/ha, scale 0 to 100): 75; Plant response rating, Chickweed ([10]; 125 g ai/ha, scale 0 to 100): 95; Plant response rating, Chickweed [10, 23]: 95; Plant response rating, Chickweed [10, 24]: 100; Plant response rating (0 = no effect, 100 = complete control), Johnsongrass ([5]; 125 g ai/ha, preemergence): 100
